Laboratory results taken from patent US20160015770A1, “COMPOSITIONS FOR TREATMENT OF RETINAL DETACHMENT” (THE REGENTS OF THE UNIVERSITY OF MICHIGAN, priority 2013, published 2016).
Entries after “also recorded” stand apart in the source; their conditions may differ.

Assays:
[1] = test system: 661W cells; experiment: Western blot of autophagy markers LC3-II and Atg5-12 in 661W cells treated with Fas activating antibody; type: cell-based, mouse; parameters: presence of LC3-II and Atg5-12 over time (prolongation of autophagy): dose or concentration left out as unconfirmed; details: Fas activation
Method: The 661W photoreceptor cell line was generously provided by Dr. Muayyad Al-Ubaidi (Department of Cell Biology, University of Oklahoma Health Sciences Center, Oklahoma City, Okla.). The 661W cell line was maintained in Dulbecco's modified Eagle's medium containing 10% fetal bovine serum, 300 mg/L glutamine, 32 mg/L putrescine, 40 μL/L β-mercaptoethanol, and 40 μg/L of both hydrocortisone 21-hemisuccinate and progesterone. The media also contained penicillin (90 units/mL) and streptomycin (0.09 mg/mL). Cells were grown at 37° C. in a humidified atmosphere of 5% CO2 and 95% air. Retinas from experimental eyes with detachment (detached portion of retina only) and control eyes without detachment were dissected from the RPE-choroid, homogenized, and lysed in buffer containing 10 mM HEPES (pH 7.6), 0.5% […], 42 mM KCl, 1 mM phenylmethylsulfonyl fluoride, 1 mM EDTA, 1 mM EGTA, 1 mM dithiothreitol, 5 mM MgCl2, and one tablet of protease inhibitors per 10 mL buffer (Complete Mini; Roche Diagnostics GmbH, Madison, Wis.). 661W cells were plated at 150,000 cells per well in six-well culture dishes in growth media. […] The protein concentration of the supernatant was then determined (DC Protein Assay kit; Bio-Rad Laboratories, Hercules, Calif.). The protein samples were separated on SDS-polyacrylamide gels (Tris-HCl Ready Gels; Bio-Rad Laboratories). […]

[2] = test system: detached retina; experiment: Experimental retinal detachment, western blot of autophagy markers (Atg5, Atg5-12, LC3-II) in retina; type: in vivo; details: rat, 0.2 μg subretinal at time of detachment, 7 days, vs detached retinas alone
Method: All experiments were performed in accordance with the ARVO Statement for the Use of Animals in Ophthalmic and Vision Research and the guidelines established by the University Committee on Use and Care of Animals of the University of Michigan. Detachments were created in adult male Brown-Norway rats (300-400 g; Charles River Laboratories, Wilmington, Mass.) as described previously. Briefly, rodents were anesthetized with a 50:50 mix of ketamine/xylazine, and pupils were dilated with topical phenylephrine (2.5%) and tropicamide (1%). A 20-gauge microvitreoretinal blade was used to create a sclerotomy 2 mm posterior to the limbus, carefully avoiding lens damage. A subretinal injector (Glaser, 32-gauge tip; BD Ophthalmic Systems, Franklin Lakes, N.J.) was introduced through the sclerotomy into the vitreous cavity and then through a peripheral retinotomy into the subretinal space. Sodium hyaluronate (10 mg/mL, Healon OVD; Abbott Medical Optics, Uppsala, Sweden) was slowly injected to detach the neurosensory retina from the underlying RPE. In all experiments, approximately one third to one half of the neurosensory retina was detached. Detachments were created in the left eye. The right eye served as the control, with all the steps of the procedure performed except for introduction of the subretinal injector and injection of the sodium hyaluronate. […]
Retinas from experimental eyes with detachment (detached portion of retina only) and control eyes without detachment were dissected from the RPE-choroid, homogenized, and lysed in buffer containing 10 mM HEPES (pH 7.6), 0.5% IgEPal, 42 mM KCl, 1 mM phenylmethylsulfonyl fluoride, 1 mM EDTA, 1 mM EGTA, 1 mM dithiothreitol, 5 mM MgCl2, and one tablet of protease inhibitors per 10 mL buffer (Complete Mini; Roche Diagnostics GmbH, Madison, Wis.). […] The protein concentration of the supernatant was then determined (DC Protein Assay kit; Bio-Rad Laboratories, Hercules, Calif.). The protein samples were separated on SDS-polyacrylamide gels (Tris-HCl Ready Gels; Bio-Rad Laboratories). […]

In the case of `CCCC[C@@H](C=O)NC(=O)[C@H](CC(C)C)NC(=O)OCc1ccccc1` [calpeptin], the “dose at which LC3-II and Atg5-12 peaked (dose response for increasing autophagy)” value ([1]; 24 hours) is reported as 25 µM, the “presence of LC3-II and Atg5-12 over time (prolongation of autophagy)” value ([1]; various lengths of time, calpeptin as printed, vs Fas activation alone / DMSO) is reported as “lasted for an extended period of time; also recorded: elongated presence of LC3-II and Atg5-12” and the “Atg5 level in retina” value [2] is reported as “increase in Atg5; also recorded: significantly more Atg5”.
